Data set [1] deals with Receptor-type tyrosine-protein kinase FLT3 (Homo sapiens, UniProt P36888, ITD). As to the kind of experiment: Inhibition of recombinant human N-terminal GST/His6-fused FLT3 ITD mutant (R571 to S993 residues) expressed in Sf9 insect cells assessed as residual activity using ULightTM-TK peptide as substrate incubated for 90 mins under dark condition by FRET assay.
For data set [2], the system named is Receptor-type tyrosine-protein kinase FLT3 (Homo sapiens), P36888 [UNDEFINED MUTATION]. The experiment in a line: Inhibition of recombinant human N-terminal GST/His6-fused FLT3 ITD mutant (R571 to S993 residues) expressed in Sf9 insect cells assessed as residual activity at 2 uM using ULightTM-TK peptide as substrate incubated for 90 mins under dark condition by FRET assay relative to control.
Sequence of Receptor-type tyrosine-protein kinase FLT3 (Homo sapiens), P36888 [UNDEFINED MUTATION] (P36888 whole entry, looked up, stated change not applied, the tested form may be a part): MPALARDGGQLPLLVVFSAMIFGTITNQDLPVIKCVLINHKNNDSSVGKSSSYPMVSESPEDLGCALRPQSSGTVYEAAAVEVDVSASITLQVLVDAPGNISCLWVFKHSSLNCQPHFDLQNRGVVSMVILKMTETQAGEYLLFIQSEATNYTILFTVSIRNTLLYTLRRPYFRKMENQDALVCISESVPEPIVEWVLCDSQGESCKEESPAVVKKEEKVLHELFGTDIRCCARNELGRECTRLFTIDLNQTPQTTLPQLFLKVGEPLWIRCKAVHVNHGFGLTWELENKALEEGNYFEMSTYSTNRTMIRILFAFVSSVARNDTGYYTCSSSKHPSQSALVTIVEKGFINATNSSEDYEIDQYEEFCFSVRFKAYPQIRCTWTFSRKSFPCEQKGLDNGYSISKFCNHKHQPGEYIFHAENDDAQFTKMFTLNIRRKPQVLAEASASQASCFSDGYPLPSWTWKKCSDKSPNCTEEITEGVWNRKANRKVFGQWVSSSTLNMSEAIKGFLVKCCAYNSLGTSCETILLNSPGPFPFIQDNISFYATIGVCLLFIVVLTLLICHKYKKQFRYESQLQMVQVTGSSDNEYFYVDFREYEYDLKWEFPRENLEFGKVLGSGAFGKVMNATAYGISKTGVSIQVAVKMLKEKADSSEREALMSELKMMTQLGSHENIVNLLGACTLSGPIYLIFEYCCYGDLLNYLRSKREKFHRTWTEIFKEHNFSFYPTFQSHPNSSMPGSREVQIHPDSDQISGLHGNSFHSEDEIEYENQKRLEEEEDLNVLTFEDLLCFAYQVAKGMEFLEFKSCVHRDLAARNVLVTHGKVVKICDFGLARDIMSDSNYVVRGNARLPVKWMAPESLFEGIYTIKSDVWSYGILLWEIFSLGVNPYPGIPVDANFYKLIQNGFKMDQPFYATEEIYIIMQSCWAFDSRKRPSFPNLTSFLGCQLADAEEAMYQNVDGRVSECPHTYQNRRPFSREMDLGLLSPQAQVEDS

Data set [3] in a line: Lipophilicity, log D of the compound at pH 7.4. Conditions: buffer. In kind it is physicochemical.

The text below walks through data of ChEMBL document CHEMBL4411324, “Comprehensive structure-activity-relationship of azaindoles as highly potent FLT3 inhibitors” (Bioorg Med Chem, 2019).

By IC50 is commonly meant the concentration at which inhibition is half-maximal. By logD is commonly meant the decadic logarithm of the distribution of all forms, ionised or not, between an organic phase and buffer at a given pH.

Bounds are passed on as bounds.

Sequence of Receptor-type tyrosine-protein kinase FLT3 (P36888 whole entry, looked up, stated change not applied, the tested form may be a part): as above

Take `Nc1ccc(-c2ccc(CCC(=O)NCCNS(=O)(=O)c3cccc4cnccc34)cc2)cn1`: the IC50 in data set [1] was 23.4 nM. Still for that read-out and setting: the result for `O=S(=O)(NCCNCCCc1ccc(-c2cnc3[nH]ccc3c2)cc1)c1ccc(Cl)cc1` reads 4.37 nM; that for `O=S(=O)(NCCNC/C=C/c1ccc(-c2ccccc2)cc1)c1cccc2cnccc12`, greater than 10000 nM; that for `CN(CCNC/C=C/c1ccc(-c2cccnc2)cc1)S(=O)(=O)c1cccc2cnccc12`, 182 nM. On the same count and under the same terms, the result for `O=C(CCc1ccc(-c2cnc3[nH]ccc3c2)cc1)NCCNS(=O)(=O)c1ccc(Cl)cc1` reads 2.4 nM; that for `O=C(CCc1ccc(-c2cnc3[nH]ccc3c2)cc1)NCCNS(=O)(=O)c1ccccc1Cl`, 0.479 nM; that for `O=S(=O)(NCCNCCCc1ccc(-c2cnc3[nH]ccc3c2)cc1)c1cccc2cnccc12`, 1.66 nM. Still for that read-out and setting: the result for `O=S(=O)(NCCNCCCc1ccc(-c2cnc3[nH]ccc3c2)cc1)c1ccc(Cl)c(Cl)c1` reads 7.41 nM; that for `O=S(=O)(NCCNC/C=C/c1ccc(-c2cccnc2)cc1)c1ccc2[nH]ncc2c1`, 9.77 nM. Consider `O=C1NCc2c1cccc2S(=O)(=O)NCCNC/C=C/c1ccc(-c2cccnc2)cc1`, for which the IC50 in data set [1] was 20 nM. Same read-out and setting: the figure for `O=C(CCc1ccc(-c2cnc3[nH]ccc3c2)cc1)NCCNS(=O)(=O)c1cccc(Cl)c1` is 1.91 nM; for `CN(C/C=C/c1ccc(-c2cccnc2)cc1)CCN(C)S(=O)(=O)c1cccc2cnccc12` it is 126 nM; for `CN(C/C=C/c1ccc(-c2cccnc2)cc1)CCNS(=O)(=O)c1cccc2cnccc12` it is 135 nM. Same read-out and setting: the result for `O=S(=O)(NCCNCc1ccc2cc(-c3cccnc3)ccc2c1)c1cccc2cnccc12` reads 562 nM.

For `O=S(=O)(NCCNCCc1ccc(-c2cccnc2)cc1)c1cccc2cnccc12`, the 50% inhibitory concentration (IC50) in data set [1] was 269 nM. Turning to `O=[N+]([O-])c1ccccc1S(=O)(=O)NCCNC/C=C/c1ccc(-c2cccnc2)cc1`, in data set [1], the IC50 is 8.51 nM. For the compound `O=S(=O)(NCCNC/C=C/c1ccc(-c2cncnc2)cc1)c1cccc2cnccc12`, in data set [2], the Activity came out at 13%. `O=S(=O)(NCCNC/C=C/c1ccc(-c2ccc3ccccc3c2)cc1)c1cccc2cnccc12`: the IC50 in data set [1] is greater than 10000 nM. The same measure, in the same setting: the figure for `CNC(=O)c1ccc(-c2ccc(CCC(=O)NCCNS(=O)(=O)c3cccc4cnccc34)cc2)cn1` is greater than 10000 nM. As for `O=S(=O)(NCCNC/C=C/c1ccc(-c2cn[nH]c2)cc1)c1cccc2cnccc12`, in data set [2], the Activity came out at 14%.

With `O=S(=O)(NCCNCCCc1ccc(-c2cccnc2)cc1)c1cccc2cnccc12`, the IC50 in data set [1] was 8.91 nM.

On to `Nc1cc2c(S(=O)(=O)NCCNC/C=C/c3ccc(-c4cccnc4)cc3)cccc2cn1`, for which, in data set [1], the IC50 is 19.5 nM. Same read-out and setting: the result for `O=C(CCc1ccc(-c2cnc3[nH]ccc3c2)cc1)NCCNS(=O)(=O)c1cc(Cl)cc(Cl)c1` reads 6.92 nM. Still for that read-out and setting: the result for `Cc1ccc(S(=O)(=O)NCCNC(=O)CCc2ccc(-c3cnc4[nH]ccc4c3)cc2)cc1` reads 2.14 nM; that for `COc1ccc(S(=O)(=O)NCCNCCCc2ccc(-c3cnc4[nH]ccc4c3)cc2)cc1`, 2.4 nM; that for `O=S(=O)(NCCNC/C=C/c1ccc(-c2cccnc2)cc1)c1cccc2ccccc12`, 61.7 nM. Regarding `Cc1ccc(S(=O)(=O)NCCNCCCc2ccc(-c3cnc4[nH]ccc4c3)cc2)cc1`, the IC50 in data set [1] is 2.04 nM. The same measure, in the same setting: the result for `O=C(CCc1ccc(-c2cnc3[nH]ccc3c2)cc1)NCCNS(=O)(=O)c1ccccc1` reads 0.324 nM. Take `COc1ccc(S(=O)(=O)NCCNC(=O)CCc2ccc(-c3cnc4[nH]ccc4c3)cc2)cc1`: the IC50 in data set [1] is 1.82 nM. Consider `O=C(CCc1ccc(-c2cnc3[nH]ccc3c2)cc1)NCCNS(=O)(=O)c1cccc2cnccc12`, for which the IC50 in data set [1] is 1.35 nM. Take `CS(=O)(=O)NCCNC/C=C/c1ccc(-c2cccnc2)cc1`: in data set [1], the IC50 is 646 nM. With `O=C(NCCNC/C=C/c1ccc(-c2cccnc2)cc1)c1cccc2cnccc12`, the IC50 in data set [1] was greater than 10000 nM. As for `O=S(=O)(NCCNC/C=C/c1ccc(-c2cnc3ccccc3c2)cc1)c1cccc2cnccc12`, the Activity in data set [2] was found to be 9%. On to `CNC(=O)c1ccc(S(=O)(=O)NCCNC/C=C/c2ccc(-c3cccnc3)cc2)cn1`, for which the IC50 in data set [1] is 13.8 nM. On the same count and under the same terms, the figure for `O=C(CCc1ccc(-c2cccnc2)cc1)NCCNS(=O)(=O)c1cccc2cnccc12` is 32.4 nM; for `O=C(CCc1ccc(-c2cnc3[nH]ccc3c2)cc1)NCCNS(=O)(=O)c1cccc(C(F)(F)F)c1` it is 4.27 nM. The same measure, in the same setting: the figure for `CNC(=O)c1ncccc1-c1ccc(CCC(=O)NCCNS(=O)(=O)c2cccc3cnccc23)cc1` is greater than 10000 nM. Regarding `CN(CCNCCCc1ccc(-c2cccnc2)cc1)S(=O)(=O)c1cccc2cnccc12`, in data set [1], the IC50 is 47.9 nM. Consider `O=S(=O)(NCCNCc1ccc(-c2cccnc2)cc1)c1cccc2cnccc12`, for which the concentration for half-maximal inhibition (IC50) in data set [1] was 158 nM.

Turning to `Nc1nccc2c(S(=O)(=O)NCCNC/C=C/c3ccc(-c4cccnc4)cc3)cccc12`, in data set [1], the IC50 is 24 nM.

Take `O=S(=O)(NCCCCCCc1ccc(-c2cccnc2)cc1)c1cccc2cnccc12`: in data set [1], the IC50 is 170 nM. On the same count and under the same terms, the figure for `O=S(=O)(NCCNC/C=C/c1ccc(-c2cccnc2)cc1)c1ccc2cn[nH]c2c1` is 17 nM; for `O=C1NCc2cc(S(=O)(=O)NCCNC/C=C/c3ccc(-c4cccnc4)cc3)ccc21` it is 18.2 nM; for `Nc1ncccc1-c1ccc(CCC(=O)NCCNS(=O)(=O)c2cccc3cnccc23)cc1` it is 151 nM. Still for that read-out and setting: the figure for `O=S(=O)(NCCOC/C=C/c1ccc(-c2cccnc2)cc1)c1cccc2cnccc12` is 8.32 nM; for `O=S(=O)(NCCOCCCc1ccc(-c2cccnc2)cc1)c1cccc2cnccc12` it is 38.9 nM; for `O=S(=O)(NCCNCCCc1ccc(-c2cnc3[nH]ccc3c2)cc1)c1ccccc1` it is 1.32 nM. On the same count and under the same terms, the figure for `O=C1NCc2ccc(S(=O)(=O)NCCNC/C=C/c3ccc(-c4cccnc4)cc3)cc21` is 47.9 nM; for `Nc1ccccc1S(=O)(=O)NCCNC/C=C/c1ccc(-c2cccnc2)cc1` it is 26.9 nM. With `O=C(CCc1ccc(-c2cnc3[nH]ccc3c2)cc1)NCCNS(=O)(=O)c1ccc(Cl)c(Cl)c1`, in data set [1], the IC50 is 4.07 nM.

With `O=S(=O)(NCCNC/C=C/c1ccc(-c2cccnc2)cc1)c1cccc2cnccc12`, the logD in data set [3] amounted to 1.5. For the same compound, in data set [1], the IC50 is 9.55 nM. Besides, the Activity in data set [2] is 13%.

Take `O=C(CCc1ccc(-c2cnc3[nH]ccc3c2)cc1)NCCNS(=O)(=O)c1ccc(F)cc1`: the IC50 in data set [1] is 0.407 nM.
